This note sets out measurements from patent publication US6117841A, “Substituted peptidylamine calcium channel blockers” (Warner-Lambert Company, priority 1999, dated 2000).

The target of the assay is T1, N-type Ca^2+ Channel (Homo sapiens, UniProt Q00975).
T1 construct: host or cells: IMR-32 cells differentiated with dibutyryl cAMP and bromodeoxyuridine
The experiment in a line: Measurement of N-type Ca2+ channel blocking potencies in IMR-32 cells using the fluorescent Ca2+ indicator Indo-1. It counts as cell-based. Put shortly:
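IMR-32 cells were differentiated 7–13 days (1 mM dibutyryl cAMP, 2.5 µM BrdU) and Indo-1-loaded. They were preincubated 10 min at 30 °C with compound and 5 µM nitrendipine in HEPES/Tris pH 7.4 HBSS with 0.5% BSA, then KCl/CaCl2-depolarized. The peak-minus-basal 400/490 nm emission ratio gave IC50 by four-parameter logistic fit.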

Where [1] appears, read: IMR-32 cells, 5 μM nitrendipine, Examples 116-140, read-out: IMR 32% of Blockade @.
Where [2] appears, read: 1 μM, IMR-32 cells, 5 μM nitrendipine.
The mark [3] stands for this setting: IMR-32 cells, K+ depolarization, 5 μM nitrendipine to block L-type channels, read-out: IMR 32 IC50.
Setting [4] is: 10 μM, IMR-32 cells, 5 μM nitrendipine.

Where two headings read alike, the source gives them in different places.

T1 sequence (Q00975 whole entry): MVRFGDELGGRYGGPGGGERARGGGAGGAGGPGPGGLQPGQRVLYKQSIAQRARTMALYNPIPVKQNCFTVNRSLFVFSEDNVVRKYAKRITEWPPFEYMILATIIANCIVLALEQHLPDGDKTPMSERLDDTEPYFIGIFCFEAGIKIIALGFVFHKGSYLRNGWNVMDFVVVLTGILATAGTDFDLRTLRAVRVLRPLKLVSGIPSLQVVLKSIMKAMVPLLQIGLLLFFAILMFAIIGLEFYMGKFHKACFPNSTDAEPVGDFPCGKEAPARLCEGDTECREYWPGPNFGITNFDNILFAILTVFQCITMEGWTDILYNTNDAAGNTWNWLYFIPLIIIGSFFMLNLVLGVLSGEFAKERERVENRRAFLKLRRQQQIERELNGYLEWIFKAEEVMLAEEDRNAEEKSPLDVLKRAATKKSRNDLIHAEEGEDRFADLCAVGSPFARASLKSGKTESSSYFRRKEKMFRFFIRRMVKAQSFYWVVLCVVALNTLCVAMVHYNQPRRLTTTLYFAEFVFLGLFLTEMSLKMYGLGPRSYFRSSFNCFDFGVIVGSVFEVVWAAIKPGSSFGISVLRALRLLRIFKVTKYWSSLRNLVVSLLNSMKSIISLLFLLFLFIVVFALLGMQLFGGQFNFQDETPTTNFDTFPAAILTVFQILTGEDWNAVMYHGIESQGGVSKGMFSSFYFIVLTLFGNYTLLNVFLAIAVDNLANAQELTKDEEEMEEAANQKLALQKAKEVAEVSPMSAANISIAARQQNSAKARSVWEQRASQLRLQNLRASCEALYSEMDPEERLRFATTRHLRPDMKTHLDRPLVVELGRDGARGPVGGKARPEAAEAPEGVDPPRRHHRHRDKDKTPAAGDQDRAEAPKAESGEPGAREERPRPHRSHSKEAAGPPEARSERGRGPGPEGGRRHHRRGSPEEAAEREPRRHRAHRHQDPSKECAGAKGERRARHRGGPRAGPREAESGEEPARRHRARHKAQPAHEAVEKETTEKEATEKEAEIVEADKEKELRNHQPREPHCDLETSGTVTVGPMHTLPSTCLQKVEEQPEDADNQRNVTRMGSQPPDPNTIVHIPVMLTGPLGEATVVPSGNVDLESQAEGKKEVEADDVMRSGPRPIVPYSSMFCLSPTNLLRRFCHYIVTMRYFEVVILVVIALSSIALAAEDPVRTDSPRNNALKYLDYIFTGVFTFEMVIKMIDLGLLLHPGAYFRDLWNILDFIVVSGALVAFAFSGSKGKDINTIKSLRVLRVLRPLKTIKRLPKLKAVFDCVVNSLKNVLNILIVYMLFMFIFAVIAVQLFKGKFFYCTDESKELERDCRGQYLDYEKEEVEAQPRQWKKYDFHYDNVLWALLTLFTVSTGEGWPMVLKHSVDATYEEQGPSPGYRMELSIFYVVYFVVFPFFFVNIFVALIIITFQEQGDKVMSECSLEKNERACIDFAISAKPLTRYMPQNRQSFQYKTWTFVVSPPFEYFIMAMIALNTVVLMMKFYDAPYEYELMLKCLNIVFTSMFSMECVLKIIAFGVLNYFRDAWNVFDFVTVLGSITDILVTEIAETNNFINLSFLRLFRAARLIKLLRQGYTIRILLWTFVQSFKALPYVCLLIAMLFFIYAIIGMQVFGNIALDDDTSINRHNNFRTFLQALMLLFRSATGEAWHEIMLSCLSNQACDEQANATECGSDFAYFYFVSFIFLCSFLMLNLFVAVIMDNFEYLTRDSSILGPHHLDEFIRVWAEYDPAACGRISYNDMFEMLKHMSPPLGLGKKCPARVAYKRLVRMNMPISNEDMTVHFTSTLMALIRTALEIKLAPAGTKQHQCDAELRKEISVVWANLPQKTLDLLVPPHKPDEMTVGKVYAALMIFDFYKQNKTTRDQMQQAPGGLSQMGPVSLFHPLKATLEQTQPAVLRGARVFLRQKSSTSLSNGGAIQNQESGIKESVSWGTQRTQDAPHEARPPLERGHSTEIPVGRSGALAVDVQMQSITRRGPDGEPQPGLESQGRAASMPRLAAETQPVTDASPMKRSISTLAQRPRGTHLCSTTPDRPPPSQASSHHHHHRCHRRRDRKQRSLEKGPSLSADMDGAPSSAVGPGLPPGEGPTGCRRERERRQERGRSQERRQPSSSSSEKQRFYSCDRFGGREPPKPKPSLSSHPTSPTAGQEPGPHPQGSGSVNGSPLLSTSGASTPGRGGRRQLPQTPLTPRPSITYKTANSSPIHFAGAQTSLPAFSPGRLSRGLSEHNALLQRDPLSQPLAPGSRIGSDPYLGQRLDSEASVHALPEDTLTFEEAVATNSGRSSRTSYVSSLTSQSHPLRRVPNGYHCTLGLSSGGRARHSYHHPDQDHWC
T1 sequence (P54284 whole entry partner): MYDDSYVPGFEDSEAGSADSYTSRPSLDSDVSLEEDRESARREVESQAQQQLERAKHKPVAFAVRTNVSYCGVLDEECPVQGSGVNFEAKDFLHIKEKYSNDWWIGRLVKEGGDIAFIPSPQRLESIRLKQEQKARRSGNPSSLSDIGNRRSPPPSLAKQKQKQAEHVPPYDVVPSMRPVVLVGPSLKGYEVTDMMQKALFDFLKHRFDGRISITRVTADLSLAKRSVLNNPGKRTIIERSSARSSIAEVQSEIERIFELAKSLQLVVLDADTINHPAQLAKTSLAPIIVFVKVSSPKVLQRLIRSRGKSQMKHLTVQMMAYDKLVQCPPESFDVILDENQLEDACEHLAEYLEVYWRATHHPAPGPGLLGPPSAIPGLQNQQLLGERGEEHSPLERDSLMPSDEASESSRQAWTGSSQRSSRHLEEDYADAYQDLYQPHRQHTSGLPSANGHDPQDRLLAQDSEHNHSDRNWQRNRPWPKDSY
T1 sequence (P54289 25-946 partner limits assumed): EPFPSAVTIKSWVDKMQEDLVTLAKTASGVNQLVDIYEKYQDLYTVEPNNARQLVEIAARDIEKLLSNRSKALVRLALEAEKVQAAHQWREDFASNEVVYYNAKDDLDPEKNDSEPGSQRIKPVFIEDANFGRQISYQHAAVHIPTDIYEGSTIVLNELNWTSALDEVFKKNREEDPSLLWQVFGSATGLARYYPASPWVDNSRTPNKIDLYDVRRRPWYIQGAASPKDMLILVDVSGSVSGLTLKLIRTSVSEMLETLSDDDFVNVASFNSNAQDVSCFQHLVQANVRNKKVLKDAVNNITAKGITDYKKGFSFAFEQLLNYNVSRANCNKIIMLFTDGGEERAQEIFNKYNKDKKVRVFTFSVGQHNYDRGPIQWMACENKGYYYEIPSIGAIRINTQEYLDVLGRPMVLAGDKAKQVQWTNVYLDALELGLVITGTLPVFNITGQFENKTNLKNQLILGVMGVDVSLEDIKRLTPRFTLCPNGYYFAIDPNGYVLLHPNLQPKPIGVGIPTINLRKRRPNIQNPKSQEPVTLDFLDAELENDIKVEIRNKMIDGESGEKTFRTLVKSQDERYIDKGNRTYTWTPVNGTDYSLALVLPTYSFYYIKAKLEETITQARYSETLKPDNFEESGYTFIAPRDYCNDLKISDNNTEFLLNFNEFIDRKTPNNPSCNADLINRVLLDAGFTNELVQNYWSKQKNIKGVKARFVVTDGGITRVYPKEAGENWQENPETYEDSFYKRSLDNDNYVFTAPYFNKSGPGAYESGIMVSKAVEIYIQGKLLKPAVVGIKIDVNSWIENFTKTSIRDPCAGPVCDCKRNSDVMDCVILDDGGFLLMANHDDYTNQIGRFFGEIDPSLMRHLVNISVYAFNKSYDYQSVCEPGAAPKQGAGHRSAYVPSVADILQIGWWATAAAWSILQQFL
T1 sequence (P54289 947-1103 partner limits assumed): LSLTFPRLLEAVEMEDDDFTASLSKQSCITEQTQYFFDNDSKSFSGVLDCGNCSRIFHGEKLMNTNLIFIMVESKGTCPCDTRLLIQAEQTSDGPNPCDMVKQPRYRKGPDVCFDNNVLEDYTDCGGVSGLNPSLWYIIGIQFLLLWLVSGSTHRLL

On to `CC(C)C[C@@H](C(=O)N[C@@H](Cc1ccc(OCc2ccccc2)cc1)C(=O)NCCN1CCCC1)N1CCOCC1` (relative stereo) [Example 125, [S-(R*,R*)]-4-Methyl-2-morpholin-4-yl-pentanoic acid [2-(4-benzyloxy-phenyl)-1-(2-pyrrolidin-1-yl-ethylcarbamoyl)-ethyl]-amide], for which the IC50 under setting [1] worked out at 9700 nM.
Turning to `CC(C)C[C@@H](C(=O)N[C@@H](Cc1ccc(OCc2ccccc2)cc1)C(=O)NC(C)(C)C)N1CCOCC1` (relative stereo) [Example 94, [S-(R*,R*)]-4-Methyl-2-morpholin-4-yl-pentanoic acid [2-(4-benzyloxy-phenyl)-1-tert-butylcarbamoyl-ethyl]-amide], the “IMR 32 % of Blockade @ 1 μM” value under setting [2] was 24%.
On to `CCC(CO)(CO)NC(=O)C(Cc1ccc(OCc2ccccc2)cc1)NC(=O)C(CC(C)C)NC1CCOCC1` (stereo not drawn) [Example 74, [S-(R*,R*)]-4-Methyl-2-(tetrahydro-pyran-4-ylamino)-pentanoic acid [2-(4-benzyloxy-phenyl)-1-(1,1-bis-hydroxymethyl-propylcarbamoyl)-ethyl]-amide], for which, under setting [3], the IC50 came out at 2600 nM.
Turning to `CC(C)C[C@@H](C(=O)N[C@@H](Cc1ccc(OCc2ccccc2)cc1)C(=O)N1CCCCC1)N(C)C` (relative stereo) [Example 2, [S-(R*,R*)]-2-Dimethylamino-4-methyl-pentanoic acid [2-(4-benzyloxy-phenyl)-1-(piperidine-1-carbonyl)-ethyl]-amide], the “IMR 32 % of Blockade @ 1 μM” value under setting [2] is 36%. Also, the “IMR 32 % of Blockade @ 10 μM” value under setting [4] turned out to be 92%.
In the case of `CC(C)CCNC(C)(C)C(=O)N[C@@H](Cc1ccc(OCc2ccccc2)cc1)C(=O)NC(C)(C)C` [Example 104, (S)-N-[2-(4-Benzyloxy-phenyl)-1-tert-butylcarbamoyl-ethyl]-2-(3-methyl-butylamino)-isobutyramide], under setting [3], the IC50 is 1300 nM.
With `CC(C)C[C@@H](C(=O)N[C@@H](Cc1ccc(OCc2ccccc2)cc1)C(=O)NC(C)(C)C)N(C)Cc1ccncc1` (relative stereo) [Example 83, [S-(R*,R*)]-4-Methyl-2-(methyl-pyridin4-ylmethyl-amino)-pentanoic acid [2-(4-benzyloxy-phenyl)-1-tert-butylcarbamoyl-ethyl]-amide], under setting [3], the IC50 turned out to be 1300 nM.
Turning to `CC(C)CC(NC1CCOCC1)C(=O)NC(Cc1ccc(OCc2ccccc2)cc1)C(=O)NC(C)(C)CO` (stereo not drawn) [Example 73, [S-(R*,R*)]-4-Methyl-2-(tetrahydro-pyran4-ylamino)-pentanoic acid [2-(4-benzyloxy-phenyl)-1-(2-hydroxy-1,1-dimethyl-ethylearbamoyl)-ethyl]-amide], the IC50 under setting [3] turned out to be 2700 nM.
In the case of `CC(C)C[C@H](NC1CCOCC1)C(=O)N[C@@H](Cc1ccc(OCc2ccccc2)cc1)C(=O)NCCN1CCOCC1` (relative stereo) [Example 127, [S-(R*,R*)]-4-Methyl-2-(tetrahydropyran-4-yl-amino)-pentanoic acid [2-(4-benzyloxy-phenyl)-1-(2-morpholin4-yl-ethylcarbamoyl)-ethyl]-amide], the IC50 under setting [1] turned out to be 7500 nM.
Turning to `CC(C)CCN(C)[C@@H](CC(C)C)C(=O)N[C@@H](Cc1ccc(OCc2ccccc2)cc1)C(=O)N1CCC(O)CC1` (relative stereo) [Example 65, [S-(R*,R*)]-4-Methyl-2-[methyl-(3-methyl-butyl)-amino]-pentanoic acid [1-(4-benzyloxy-benzyl)-2-(4-hydroxy-piperidin-1-yl)-2-oxo-ethyl]-amide], the IC50 under setting [3] came to 1100 nM.
Same read-out and setting: the value for `CC(C)C[C@@H](C(=O)N[C@@H](Cc1ccc(OCc2ccccc2)cc1)C(=O)NC(C)(C)C)N(C)C1CCOCC1` (relative stereo) [Example 87, [S-(R*,R*)]-4-Methyl-2-[methyl-(tetrahydro-pyran-4-yl)-amino]-pentanoic acid [2-(4-benzyloxy-phenyl)-1-tert-butylcarbamoyl-ethyl]-amide] was 3100 nM.
Consider `CC(C)C[C@H](NCc1ccccc1)C(=O)N[C@@H](Cc1ccc(OCc2ccccc2)cc1)C(=O)OC(C)(C)C` (relative stereo) [Example 33, [S-(R*,R*)]-2-(2-Benzylamino-4-methyl-pentanoylamino)-3-(4-benzyloxy-phenyl)-propionic acid tert-butyl ester], for which the “IMR 32 % of Blockade @ 1 μM” value under setting [2] was 52%. Moreover, under setting [4], the “IMR 32 % of Blockade @ 10 μM” value is listed as 95%.
With “[S-(R*,R*)]-2-Dimethylamino-4-methyl-pentanoic acid [2-(4-benzyloxy-phenyl)-1-(2-hydroxymethylbutan-1-ol)-ethyl]-amide [Example 137]”, the IC50 under setting [1] stood at 6200 nM.
Regarding `CC(C)C[C@@H](C(=O)N[C@@H](Cc1ccc(OCc2ccccc2)cc1)C(=O)NC(C)(C)C)N(C)Cc1ccc[nH]1` (relative stereo) [Example 89, [S-(R*,R*)]-4-Methyl-2-[methyl-(1H-pyrrol-2-ylmethyl)-amino]-pentanoic acid [2-(4-benzyloxy-phenyl)-1-tert-butylcarbamoyl-ethyl]-amide], the IC50 under setting [3] is 1000 nM.
As to `CC(C)CCN(C)[C@@H](CC(C)C)C(=O)NC(Cc1ccc(OCc2ccccc2)cc1)C(=O)NCCNCc1ccccc1` (stereo in doubt) [Example 60, [S(R*,R*)]-4-Methyl-2-[methyl-(3-methyl-butyl)-amino]-pentanoic acid [1-(2-benzylamino-ethylcarbamoyl)-2-(4-benzyloxy-phenyl)-ethyl]-amide], the IC50 under setting [3] turned out to be 200 nM.
For the molecule `CC(C)C[C@@H](C(=O)N[C@@H](Cc1ccc(OCc2ccccc2)cc1)C(=O)NCCN1CCCCC1)N(C)Cc1ccc(C(C)(C)C)cc1` (relative stereo) [Example 15, [S-(R*,R*)]-2-[(4-tert-Butyl-benzyl)-methyl-amino]-4-methyl-pentanoic acid [2-(4-benzyloxy-phenyl)-1-(2-piperidin-1-yl-ethylcarbamoyl)-ethyl]-amide], the “IMR 32 % of Blockade @ 1 μM” value under setting [2] stood at 56%. Under setting [4], the “IMR 32 % of Blockade @ 10 μM” value worked out at 80%.
In the case of `CC(C)CCN(C)[C@@H](CC(C)C)C(=O)N[C@@H](Cc1ccc(OCc2ccccc2)cc1)C(=O)NCCN1CCOCC1` (relative stereo) [Example 57, [S-(R*,R*)]-4-Methyl-2-[methyl-(3-methyl-butyl)-amino]-pentanoic acid [2-(4-benzyloxy-phenyl)-1-(2-morpholin-4-yl-ethylcarbamoyl)-ethyl]-amide], the IC50 under setting [3] turned out to be 2100 nM.
Consider `CC(C)C[C@@H](C(=O)N[C@@H](Cc1ccc(OCc2ccccc2)cc1)C(=O)NC1CCN(Cc2ccccc2)C1)N1CCOCC1` (relative stereo) [Example 69, [S-(R*,R*)]-4-Methyl-2-morpholin-4-yl-pentanoic acid [2-(4-benzyloxy-phenyl)-1-(1-benzyl-pyrrolidin-3-ylcarbamoyl)-ethyl]-amide], for which the IC50 under setting [3] worked out at 1300 nM.
Consider `CC(C)CC(C(=O)NC(Cc1ccc(OCc2ccccc2)cc1)C(=O)NC(C)(C)C)N(C)Cc1ccccc1` (stereo not drawn) [Example 54, [S-(R*,R*)]-2-(Benzyl-methyl-amino)-4-methyl-pentanoic acid [2-(4-benzyloxy-phenyl)-1-tert-butylcarbamoyl-ethyl]-amide], for which, under setting [3], the IC50 turned out to be 360 nM.
As to `CC(C)CCN(C)[C@@H](CC(C)C)C(=O)N[C@@H](Cc1ccc(OCc2ccccc2)cc1)C(=O)NCCN1CCCCC1` (relative stereo) [Example 9, [S-(R*,R*)]-4-Methyl-2-[methyl-(3-methyl-butyl)-amino]-pentanoic acid [2-(4-benzyloxy-phenyl)-1-(2-piperidin-1-yl-ethylcarbamoyl)-ethyl]-amide], the “IMR 32 % of Blockade @ 1 μM” value under setting [2] was found to be 60%. For the same molecule, under setting [4], the “IMR 32 % of Blockade @ 10 μM” value turned out to be 89%.
With `CC(C)=CCN[C@@H](CC(C)C)C(=O)N[C@@H](Cc1ccc(OCc2ccccc2)cc1)C(=O)N1CCN(Cc2ccccc2)CC1` (relative stereo) [Example 53, [S-(R*,R*)]-4-Methyl-2-(3-methyl-but-2-enylamino)-pentanoic acid [1-(4-benzyloxy-benzyl)-2-(4-benzyl-piperazin-1-yl)-2-oxo-ethyl]-amide], the IC50 under setting [3] worked out at 700 nM.
On the same count and under the same terms, the value for `CC(C)C[C@H](NCc1ccc(C(C)(C)C)cc1)C(=O)N[C@@H](Cc1ccc(OCc2ccccc2)cc1)C(=O)N1CCN(Cc2ccccc2)CC1` (relative stereo) [Example 52, [S-(R*,R*)]-2-(4-tert-Butyl-benzylamino)-4-methyl-pentanoic acid [1-(4-benzyloxy-benzyl)-2-(4-benzyl-piperazin-1-yl)-2-oxo-ethyl]-amide] was 770 nM.
On to `CCC[C@@H](C(=O)N[C@@H](Cc1ccc(OCc2ccccc2)cc1)C(=O)NC(C)(C)C)N(C)CCC(C)C` (relative stereo) [Example 46, [S-(R*,R*)]-4-Methyl-2-[methyl-(3-methyl-butyl)-amino]-butyric acid [2-(4-benzyloxy-phenyl)-1-tert-butylcarbamoyl-ethyl]-amide], for which, under “0.3 μM, IMR-32 cells, 5 μM nitrendipine”, the “IMR 32 % of Blockade @ 0.3 μM” value is 36%. The “IMR 32 % of Blockade @ 3 μM” value (3 μM, IMR-32 cells, 5 μM nitrendipine) turned out to be 74%.
Turning to `CC(C)C[C@@H](C(=O)N[C@@H](Cc1ccc(OCc2ccccc2)cc1)C(=O)N1CCN(C)CC1)N(C)C` (relative stereo) [Example 6, [S-(R*,R*)]-2-Dimethylamino-4-methyl-pentanoic acid [1-(4-benzyloxy-benzyl)-2-(4-methyl-piperazin-1-yl)-2-oxo-ethyl]-amide], the “IMR 32 % of Blockade @ 1 μM” value was determined as 16% and the “IMR 32 % of Blockade @ 10 μM” value is 31%.
On to `CC(C)CCN(C)[C@@H](CC(C)C)C(=O)N[C@@H](Cc1ccc(OCc2ccccc2)cc1)C(=O)NCCc1ccccn1` (relative stereo) [Example 58, [S-(R*,R*)]-4-Methyl-2-[methyl-(3-methyl-butyl)-amino]-pentanoic acid [2-(4-benzyloxy-phenyl)-1-(2-pyridin-2-yl-ethylcarbamoyl)-ethyl]-amide], for which the IC50 under setting [3] was found to be 1000 nM.
